This series has as its system DMPK. Description: DMPK knockdown by transfected antisense oligonucleotides in DM1 C15 myotubes at 0.5 nM and 50 nM. It is filed as cell-based. Conditions: 72 hours; for Normalized DMPK Remaining: relative to vehicle control = 1.00. Here is the method:
Two hundred and thirty-six oligonucleotides for targeting DMPK were generated using in silico analysis. Each individual oligonucleotide was evaluated for their ability to target DMPK in cellulo at two doses—0.5 nM (low dose) and 50 nM (high dose).
Briefly, DM1 C15 immortalized myoblasts were cultured in T-75 flasks until near confluency (˜80% confluent). Myoblasts were then disrupted with trypsin and seeded into 96-well microplates at a density of 50,000 cells/well. Cells were allowed to recover overnight before the growth media was washed out and replaced with a no-serum media to induce differentiation into myotubes. Differentiation proceeded for seven days prior to treatment with DMPK-targeting oligonucleotides.
On day seven following induction of differentiation, DM1 C15 myotubes were transfected with an individual oligonucleotide using 0.3 μL of Lipofectamine MessengerMax per well. All oligonucleotides were tested at both 0.5 nM and 50 nM final concentrations in biological triplicates. After treatment with oligonucleotides, cells were incubated for 72 hours prior to being harvested for total RNA. cDNA was synthesized from the total RNA extracts and qPCR was performed to determine expression levels of DMPK in technical quadruplicate. All qPCR data were analyzed using a traditional […] method and were normalized to a plate-based negative control that comprised cells treated with vehicle control (0.3 μL/well Lipofectamine MessengerMax without any oligonucleotide). Results from these experiments are shown in Table 10. ‘Normalized DMPK Remaining’ for each antisense oligonucleotide in Table 10 refers to the expression level of DMPK in cell treated with said antisense oligonucleotide relative to the negative control that comprised cells treated with vehicle control (wherein the expression level of the negative control has been normalized to equal 1.00)

Where [1] appears, read: 0.5 nM oligonucleotide, qPCR, relative to vehicle control.
[2] abbreviates: 50 nM oligonucleotide, qPCR, relative to vehicle control.

Take “324 (GCCUCAGCCUCUGCCGCAGG; chemistry not given here) [compound 324]”: the “Percent DMPK Reduction” value under setting [1] is 16.37% and the “Percent DMPK Reduction” value under setting [2] stood at 46.42%. Moreover, the “Normalized DMPK Remaining” value by setting is: (0.5 nM oligonucleotide, qPCR) 0.84; (50 nM oligonucleotide, qPCR) 0.54.

With “377 (UUUCCCGAGUAAGCAGGCAG; chemistry not given here) [compound 377]”, under “0.5 nM oligonucleotide”, the “Percent DMPK Reduction” value is given as 20.69% and the “Normalized DMPK Remaining” value amounted to 0.79. For the same substance, where the note is “50 nM oligonucleotide”, the “Percent DMPK Reduction” value is 44.89% and the “Normalized DMPK Remaining” value is listed as 0.55.

Consider “258 (AACUUGCUCAGCAGUGUCAG; chemistry not given here) [compound 258]”, for which the “Percent DMPK Reduction” value came to 19.81% under setting [1] and 52.64% under setting [2]. Also, the “Normalized DMPK Remaining” value by setting is: (0.5 nM oligonucleotide, qPCR) 0.80; (50 nM oligonucleotide, qPCR) 0.47.

On to “326 (CAGCGCCCACCAGUCACACU; chemistry not given here) [compound 326]”, for which the “Percent DMPK Reduction” value by setting is: under setting [1], 37.28%; under setting [2], 64.93%. Also, the “Normalized DMPK Remaining” value was 0.63 (0.5 nM oligonucleotide, qPCR) and 0.35 (50 nM oligonucleotide, qPCR).

In the case of “373 (GGGACAGACAAUAAAUACCG; chemistry not given here) [compound 373]”, the “Percent DMPK Reduction” value under setting [1] worked out at 27.19% and the “Percent DMPK Reduction” value under setting [2] is recorded as 50.50%. In addition, the “Normalized DMPK Remaining” value by setting is: (0.5 nM oligonucleotide, qPCR) 0.73; (50 nM oligonucleotide, qPCR) 0.49.

Take “312 (GUCUCAGUGCAUCCAAAACG; chemistry not given here) [compound 312]”: the “Percent DMPK Reduction” value reads like this: under setting [1], 18.85%; under setting [2], 46.13%. Also, the “Normalized DMPK Remaining” value amounted to 0.81 (0.5 nM oligonucleotide, qPCR) and 0.54 (50 nM oligonucleotide, qPCR).

In the case of “295 (CCUUGUAGUGGACGAUCUUG; chemistry not given here) [compound 295]”, the “Percent DMPK Reduction” value by setting is: under setting [1], 17.20%; under setting [2], 65.91%. For the same substance, the “Normalized DMPK Remaining” value (0.5 nM oligonucleotide, qPCR) came to 0.83 and the “Normalized DMPK Remaining” value (50 nM oligonucleotide, qPCR) is reported as 0.34.

In the case of “321 (GCUCCCUCUGCCUGCAGCAA; chemistry not given here) [compound 321]”, the “Percent DMPK Reduction” value reads like this: under setting [1], 26.41%; under setting [2], 70.15%. Moreover, the “Normalized DMPK Remaining” value is 0.74 (0.5 nM oligonucleotide, qPCR) and 0.30 (50 nM oligonucleotide, qPCR).

Regarding “253 (UGCUCAGCAGUGUCAGCAGG; chemistry not given here) [compound 253]”, the “Percent DMPK Reduction” value under setting [1] was 27.08% and the “Percent DMPK Reduction” value under setting [2] is recorded as 65.78%. The “Normalized DMPK Remaining” value is 0.73 (0.5 nM oligonucleotide, qPCR) and 0.34 (50 nM oligonucleotide, qPCR).

In the case of “385 (GUUGGCCGGCGUGGGCCACC; chemistry not given here) [compound 385]”, under “0.5 nM oligonucleotide”, the “Percent DMPK Reduction” value is on record as -1.82% and the “Normalized DMPK Remaining” value was 1.02. Where the note is “50 nM oligonucleotide”, the “Percent DMPK Reduction” value is reported as 43.57% and the “Normalized DMPK Remaining” value amounted to 0.56.

Regarding “379 (CAGGUAGUUCUCAUCCUGGA; chemistry not given here) [compound 379]”, for the setting “0.5 nM oligonucleotide”, the “Percent DMPK Reduction” value was 25.92% and the “Normalized DMPK Remaining” value turned out to be 0.74. In addition, under “50 nM oligonucleotide”, the “Percent DMPK Reduction” value was 76.71% and the “Normalized DMPK Remaining” value is listed as 0.23.

On to “412 (AGGUACAGGUAGUUCUCAUC; chemistry not given here) [compound 412]”, for which, where the note is “0.5 nM oligonucleotide”, the “Percent DMPK Reduction” value is recorded as 18.68% and the “Normalized DMPK Remaining” value was 0.81. For the same substance, for the setting “50 nM oligonucleotide”, the “Percent DMPK Reduction” value came to 58.92% and the “Normalized DMPK Remaining” value amounted to 0.41.

As for “314 (UCAGCAGUGUCAGCAGGUCC; chemistry not given here) [compound 314]”, the “Percent DMPK Reduction” value under setting [1] turned out to be 33.46% and the “Percent DMPK Reduction” value under setting [2] was 61.11%. The “Normalized DMPK Remaining” value (0.5 nM oligonucleotide, qPCR) is 0.67 and the “Normalized DMPK Remaining” value (50 nM oligonucleotide, qPCR) is 0.39.

Turning to “344 (UCUGCCGCAGGGACAGCCGC; chemistry not given here) [compound 344]”, the “Percent DMPK Reduction” value reads like this: under setting [1], 22.97%; under setting [2], 82.10%. In addition, the “Normalized DMPK Remaining” value amounted to 0.77 (0.5 nM oligonucleotide, qPCR) and 0.18 (50 nM oligonucleotide, qPCR).

In the case of “435 (GCCUGUCAGCGAGUCGGAGG; chemistry not given here) [compound 435]”, the “Percent DMPK Reduction” value amounted to 10.81% (0.5 nM oligonucleotide) and 75.67% (50 nM oligonucleotide). The “Normalized DMPK Remaining” value is 0.89 (0.5 nM oligonucleotide) and 0.24 (50 nM oligonucleotide).

Take “277 (GACCAGGUACAGGUAGUUCU; chemistry not given here) [compound 277]”: the “Percent DMPK Reduction” value under setting [1] is recorded as 42.85% and the “Percent DMPK Reduction” value under setting [2] is recorded as 70.95%. Also, the “Normalized DMPK Remaining” value is 0.57 (0.5 nM oligonucleotide, qPCR) and 0.29 (50 nM oligonucleotide, qPCR).

With “458 (GUCGGCCAGGCGGAUGUGGC; chemistry not given here) [compound 458]”, under “0.5 nM oligonucleotide”, the “Percent DMPK Reduction” value was determined as 15.35% and the “Normalized DMPK Remaining” value stood at 0.85. In addition, under “50 nM oligonucleotide”, the “Percent DMPK Reduction” value is listed as 74.59% and the “Normalized DMPK Remaining” value was 0.25.

With “409 (GGCUUGCUGCCUUCCCAGGC; chemistry not given here) [compound 409]”, for the setting “0.5 nM oligonucleotide”, the “Percent DMPK Reduction” value was -6.32% and the “Normalized DMPK Remaining” value is 1.06. Besides, where the note is “50 nM oligonucleotide”, the “Percent DMPK Reduction” value was 48.15% and the “Normalized DMPK Remaining” value was 0.52.

“388 (UGGAACACGGACGGCCCGGC; chemistry not given here) [compound 388]”: the “Percent DMPK Reduction” value (0.5 nM oligonucleotide) is -1.90% and the “Percent DMPK Reduction” value (50 nM oligonucleotide) is given as 60.96%. In addition, the “Normalized DMPK Remaining” value by setting is: (0.5 nM oligonucleotide) 1.02; (50 nM oligonucleotide) 0.39.

As to “417 (CCAGCAGGAUGUUGUCGGGU; chemistry not given here) [compound 417]”, for the setting “0.5 nM oligonucleotide”, the “Percent DMPK Reduction” value stood at 40.29% and the “Normalized DMPK Remaining” value amounted to 0.60. In addition, under “50 nM oligonucleotide”, the “Percent DMPK Reduction” value worked out at 89.59% and the “Normalized DMPK Remaining” value worked out at 0.10.

Turning to “438 (UCUAGGGUUCAGGGAGCGCG; chemistry not given here) [compound 438]”, for the setting “0.5 nM oligonucleotide”, the “Percent DMPK Reduction” value stood at 21.81% and the “Normalized DMPK Remaining” value turned out to be 0.78. Under “50 nM oligonucleotide”, the “Percent DMPK Reduction” value is on record as 83.22% and the “Normalized DMPK Remaining” value amounted to 0.17.

With “351 (UGAUGUCCCUGUGCACGUAG; chemistry not given here) [compound 351]”, the “Percent DMPK Reduction” value under setting [1] was 20.58% and the “Percent DMPK Reduction” value under setting [2] is 59.00%. Further, the “Normalized DMPK Remaining” value reads like this: (0.5 nM oligonucleotide, qPCR) 0.79; (50 nM oligonucleotide, qPCR) 0.41.

Consider “285 (AUCUCGGCCGGAAUCCGCUC; chemistry not given here) [compound 285]”, for which the “Percent DMPK Reduction” value runs as follows: under setting [1], 11.61%; under setting [2], 65.98%. In addition, the “Normalized DMPK Remaining” value runs as follows: (0.5 nM oligonucleotide, qPCR) 0.88; (50 nM oligonucleotide, qPCR) 0.34.

For “361 (GCCAUGACAAUCUCCGCCAG; chemistry not given here) [compound 361]”, the “Percent DMPK Reduction” value under setting [1] is 30.96% and the “Percent DMPK Reduction” value under setting [2] was found to be 81.00%. Further, the “Normalized DMPK Remaining” value runs as follows: (0.5 nM oligonucleotide, qPCR) 0.69; (50 nM oligonucleotide, qPCR) 0.19.

Turning to “275 (AGCGCCUCCGAUAGGCCAGG; chemistry not given here) [compound 275]”, the “Percent DMPK Reduction” value is, setting by setting: under setting [1], 21.19%; under setting [2], 61.91%. Also, the “Normalized DMPK Remaining” value worked out at 0.79 (0.5 nM oligonucleotide, qPCR) and 0.38 (50 nM oligonucleotide, qPCR).

Take “381 (UAGUUCUCAUCCUGGAAGGC; chemistry not given here) [compound 381]”: for the setting “0.5 nM oligonucleotide”, the “Percent DMPK Reduction” value came out at 16.83% and the “Normalized DMPK Remaining” value stood at 0.83. For the same substance, under “50 nM oligonucleotide”, the “Percent DMPK Reduction” value came out at 43.88% and the “Normalized DMPK Remaining” value is given as 0.56.

For “402 (GACAAUCUCCGCCAGGUAGA; chemistry not given here) [compound 402]”, where the note is “0.5 nM oligonucleotide”, the “Percent DMPK Reduction” value amounted to 23.70% and the “Normalized DMPK Remaining” value is 0.76. Where the note is “50 nM oligonucleotide”, the “Percent DMPK Reduction” value came to 49.82% and the “Normalized DMPK Remaining” value is reported as 0.50.

As for “279 (CAUCUCGGCCGGAAUCCGCU; chemistry not given here) [compound 279]”, the “Percent DMPK Reduction” value is listed as 20.21% under setting [1] and 59.40% under setting [2]. For the same substance, the “Normalized DMPK Remaining” value worked out at 0.80 (0.5 nM oligonucleotide, qPCR) and 0.41 (50 nM oligonucleotide, qPCR).

Take “308 (UGACAAUCUCCGCCAGGUAG; chemistry not given here) [compound 308]”: the “Percent DMPK Reduction” value is, setting by setting: under setting [1], 38.86%; under setting [2], 66.56%. The “Normalized DMPK Remaining” value amounted to 0.61 (0.5 nM oligonucleotide, qPCR) and 0.33 (50 nM oligonucleotide, qPCR).

The values above are taken from patent US20230144436A1, “MUSCLE TARGETING COMPLEXES AND USES THEREOF FOR TREATING MYOTONIC DYSTROPHY” (Dyne Therapeutics, Inc., priority 2020, published 2023).
